We go through ten compounds from patent US20080293711A1 (priority 2007, published 2008).

In one data set the test system is T-tropic HIV. In words: Phenoscreen assay: inhibition of cellular entry of HIV (luciferase-tagged test vector, target host cells). It counts as cell-based. To be noted: Human immunodeficiency virus 1, read-out: IC50 value for viral entry inhibition. On the procedure:
A selected set of compounds are tested for their ability to inhibit the cellular entry of T-tropic HIV. The assay for this inhibition was carried out by Monogram Biosciences, Inc. using their well established Phenoscreen™ assay. Briefly, HIV strains of interest are tagged with a luciferase indicator gene to create an appropriate test vector. The test vector is amplified through transfection and the resulting virus is incubated in the presence of target host cells where intracellular florescence activity then becomes a measure of infection. Amplified virus is exposed to target host cells in the presence of a range of test drug concentrations to determine IC50 measurements of entry inhibition. A modification of this test is further reapplied as a novel drug assay used in partnership with a number of pharmaceutical companies to test the effectiveness of novel entry inhibitors that target specific chemokines. It can used to detect activity against T-tropic, M-tropic, and dual-tropic viruses and Monogram Biosciences has a large bank of over 10,000 different virus strains to ultimately assess the range of applicability of our chemokine modulators. Certain compounds are tested to establish efficacy in a number of viral strains.
What is called IC50 is the point on the concentration scale where inhibition reaches its midpoint. As to `O=C(NCc1ccc(C(=O)N(Cc2ccccc2)N2CCOCC2)cc1)c1cccs1` [A, N-(4-(benzyl(morpholino)carbamoyl)benzyl)thiophene-2-carboxamide], the concentration for half-maximal inhibition (IC50) was not above 10 µM. Same read-out and setting: to `N#Cc1ccc(NNC(=O)c2ccc(CNCc3ccccc3)cc2)cc1` [AB, 4-((benzylamino)methyl)-N′-(4-cyanophenyl)benzohydrazide] belongs not above 10 µM; to `O=C(NNc1ccc(C(F)(F)F)cc1)c1ccc(CNCc2ccccc2)cc1` [AA, 4-((benzylamino)methyl)-N′-(4-(trifluoromethyl)phenyl)benzohydrazide], not above 10 µM. Take `C[C@H](NC(=O)NCc1ccc(C(=O)NNc2ccccc2)cc1)c1cccc2ccccc12` [BE, (S)-4-((3-(1-(naphthalen-1-yl)ethyl)ureido)methyl)-N′-phenylbenzohydrazide]: the IC50 was not above 10 µM. The same measure, in the same setting: to `O=C(NNc1ccccc1)c1ccc(CNCc2ccccc2)cc1` [Z, 4-((benzylamino)methyl)-N′-phenylbenzohydrazide] belongs not above 10 µM. On to `O=C(NCc1ccccc1)c1ccc(C(=O)NNc2ccccc2)cc1`, for which the IC50 is not above 10 µM. Same read-out and setting: to `O=C(NCc1ccccn1)c1ccc(C(=O)NNc2ccccc2)cc1` [AO, 4-(2-phenylhydrazinecarbonyl)-N-(pyridin-2-ylmethyl)benzamide] belongs not above 10 µM; to `O=C(NNc1ccccc1)c1ccc(CNCc2ccccn2)cc1` [AL, N′-phenyl-4-((pyridin-2-ylmethylamino)methyl)benzohydrazide], not above 10 µM; to `O=C(NNc1ccc(F)cc1F)c1ccc(CNCc2ccccc2)cc1` [AF, 4-((benzylamino)methyl)-N1′-(2,4-difluorophenyl)benzohydrazide], not above 10 µM.

System in another data set: not given
Assay: not given
To be noted: in vivo; cited from earlier work.
Take `c1cc(CN2CCCNCCNCCCNCC2)ccc1CN1CCCNCCNCCCNCC1` [AMD3100]: the “side effect in clinical study” value is “cardiac-related side effect”.
